Assay results: publication PMC12423301, “Astrocytic monoamine oxidase B (MAOB)–gamma-aminobutyric acid (GABA) axis as a molecular brake on repair following spinal cord injury” (Signal Transduction and Targeted Therapy, 2025)
Where two headings read alike, the source gives them in different places.

Assays:
in vivo [1] = assay: in vivo; design: species or system SD Rat; settings: rat
Protocol: Next, we tested whether pharmacological inhibition of MAOB facilitates recovery after SCI. […] The pharmacokinetic (PK) analysis of KDS2010 was performed in mice, rats, and nonhuman primates. […] We substituted the mouse SCI model with a rat SCI model, which has been reported to be better for pharmacological evaluation and closer to human SCI.[21] We performed Basso, Beattie and Bresnahan (BBB) locomotor test[22] to assess the functional recovery once a week for a total of 11 weeks (Fig. 2a). […] In addition to the BBB locomotor test, we performed the ladder rung test by measuring the percentage of hindlimb steps without slipping as rats walked along a horizontal ladder[23] (Fig. 2d, e). […] We then assessed the tissue recovery using EC staining on cross and longitudinal sections of the spinal cord. […]
(§1) In a pharmacokinetic study, plasma PK parameters were measured after a single oral administration of […]
dose group and at 4 to 6 hours after administration in the 30 mg/kg dose group. In the elimination phase, the […]
Systemic exposure (AUClast) to the test substance was 30587 and 80770 ng*hr/mL, respectively.
At this time, AUC0-inf was […]
time, AUC0-inf was 192000 ng eq.h/mL. […]

[2] = Sprague-Dawley, rat, in vivo
in vivo [3] = settings: both, cynomolgus monkey, po
[4] = Genetic toxicology (reverse mutation, chromosomal aberration, micronucleus)
Protocol: (§2) Protocol No. NB_KDS_ADP1_21 Confidential administration of the test substance to rats at a dose of 50-200 mg/kg daily for 2 weeks, there were no deaths.
(§3) As a result of oral administration to rats at doses of 30, 50, 75 and 100 mg/kg once daily for 4 weeks, […]
(§4) testis, epididymis and lungs. Renal epithelial hyperplasia and inflammatory cells infiltration in the renal pelvis observed in the male and female dose groups of 75 mg/kg or more, germ cell degeneration/loss and seminiferous tubules atrophy observed in the male dose groups of 75 mg/kg or more, and vacuole/degeneration of outer medullary tubules and basophilic tubules observed in the female dose groups were judged to be adverse effects due to administration of the test substance. Proximal tubular hyaline granules in the kidney, basophilic tubules, testicular germ cell degeneration/loss, and alveolar macrophage aggregation in the lungs(females) were observed even after a 2-week recovery period. Accordingly, in repeated administrations of rats for 4 weeks, the NOAEL(No Observed Adverse Effect Level) was determined to be 50 mg/kg/day for males and 30 mg/kg for females. As a result of repeated oral administrations of 0, 25, 50 or 100 mg/kg/day for 2 weeks to Cynomolgus […]
male dose group of 50 mg/kg/day, and a distal tubule/collecting duct dilatation and papillary duct epithelial cell […]
the NOAEL was judged as 40 mg/kg for both males and females. As a result of the safety pharmacology test, […]
the genetic toxicology, the reverse mutation test, the chromosomal aberration assay, and the micronucleus assay […]
as §1
(§5) a result of measuring excretion into urine, feces, expiration, and bile, 6.9% was excreted in urine and 48.5% in feces, respectively, up to 168 hours after administration. Excretion to air through respiration was about 0.0% until 48 hours after administration, and 44.1% of the administered radioactivity concentration was present in the body (carcass). […]

[5] = 14C radiolabeled KDS2010 disposition and excretion in rats; type: in vivo, SD rats
Protocol: Protocol No. NB_KDS_ADP1_21 Confidential
In a pharmacokinetic study, plasma PK parameters were measured after a single oral administration of
5.2. Rationale for Selection of Dose and Duration of Dosing
According to the FDA guideline (Estimating the Maximum Safe Starting Dose in Initial Clinical Trials for […]

Safety pharmacology test = settings: in vivo
Protocol: as §2, §3
as §4, with “Proximal tubular hyaline granules in the kidney, basophilic tubules, testicular germ cell degeneration/loss, and alveolar macrophage aggregation in the lungs(females) were observed even after a 2-week recovery period.” left out, “females.” for “females. As a result of repeated oral administrations of 0, 25, 50 or 100 mg/kg/day for 2 weeks to Cynomolgus”
as §1, §5

hERG = hERG (Homo sapiens, UniProt Q12809); assay: hERG assay; type: biochemical
hERG, sequence (Q12809 whole entry): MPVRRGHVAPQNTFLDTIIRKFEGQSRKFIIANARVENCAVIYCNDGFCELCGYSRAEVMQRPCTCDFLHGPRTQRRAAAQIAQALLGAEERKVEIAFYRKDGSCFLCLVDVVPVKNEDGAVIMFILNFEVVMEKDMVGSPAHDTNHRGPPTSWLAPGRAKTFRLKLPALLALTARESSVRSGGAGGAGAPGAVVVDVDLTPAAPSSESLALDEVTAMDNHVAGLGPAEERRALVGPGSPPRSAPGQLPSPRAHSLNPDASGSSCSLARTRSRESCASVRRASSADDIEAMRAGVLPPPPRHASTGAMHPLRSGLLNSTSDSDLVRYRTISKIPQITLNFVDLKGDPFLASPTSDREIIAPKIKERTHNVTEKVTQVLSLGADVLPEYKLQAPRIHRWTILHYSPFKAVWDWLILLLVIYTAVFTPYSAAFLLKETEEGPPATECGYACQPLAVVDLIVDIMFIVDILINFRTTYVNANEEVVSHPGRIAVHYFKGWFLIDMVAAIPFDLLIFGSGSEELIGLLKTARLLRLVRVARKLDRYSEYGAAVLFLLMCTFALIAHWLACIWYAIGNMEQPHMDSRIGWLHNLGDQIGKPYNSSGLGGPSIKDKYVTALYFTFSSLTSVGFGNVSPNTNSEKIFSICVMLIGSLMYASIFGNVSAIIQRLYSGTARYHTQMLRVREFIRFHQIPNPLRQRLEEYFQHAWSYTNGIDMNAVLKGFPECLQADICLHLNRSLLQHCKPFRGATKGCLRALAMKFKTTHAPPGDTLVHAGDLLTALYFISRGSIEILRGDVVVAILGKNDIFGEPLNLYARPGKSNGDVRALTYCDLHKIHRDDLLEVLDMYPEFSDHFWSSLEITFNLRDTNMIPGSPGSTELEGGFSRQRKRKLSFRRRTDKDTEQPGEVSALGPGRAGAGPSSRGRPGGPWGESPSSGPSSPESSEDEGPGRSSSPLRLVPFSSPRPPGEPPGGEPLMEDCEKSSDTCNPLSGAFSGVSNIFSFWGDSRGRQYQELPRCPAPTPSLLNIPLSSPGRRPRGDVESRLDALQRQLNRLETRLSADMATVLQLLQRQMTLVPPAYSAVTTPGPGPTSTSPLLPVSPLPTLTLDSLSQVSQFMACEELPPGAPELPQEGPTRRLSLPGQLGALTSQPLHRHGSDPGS
Protocol: as §2, §3
as §4, with “Proximal tubular hyaline granules in the kidney, basophilic tubules, testicular germ cell degeneration/loss, and alveolar macrophage aggregation in the lungs(females) were observed even after a 2-week recovery period.” left out, “females.” for “females. As a result of repeated oral administrations of 0, 25, 50 or 100 mg/kg/day for 2 weeks to Cynomolgus”
as §1, §5

[6] = cynomolgus monkey, in vivo, po
[7] = Preclinical pharmacokinetics in monkeys; settings: cynomolgus monkey, in vivo, iv, 5 mg/kg
rat SCI model = assay: TEM and TB staining of rat spinal cord (myelination); type: in vivo, Sprague-Dawley (SD) rats
Protocol: Spinal cord tissues were prefixed in Karnovsky’s fixative (2% glutaraldehyde, 2% paraformaldehyde in 0.1 M phosphate buffer) overnight at 4 °C. After postfixation in 1% osmium tetroxide (OsO4), the samples were dehydrated through a graded ethanol series and embedded in epoxy resin.
For TB staining, 250–300 nm semi-thin sections were obtained via an ultramicrotome (Leica Ultracut UCT, Leica Microsystems, Austria), stained with 0.5% toluidine blue, and imaged using a light microscope (Olympus IX71).
For TEM, 80–100 nm ultrathin sections were cut using a diamond knife (Diatome, Switzerland), mounted on 300-mesh Gilder grids, and stained with 6% uranyl acetate and lead citrate. Images were acquired using a transmission electron microscope (JEM 1011, JEOL, Tokyo, Japan) as previously described.
All TB and TEM analyses were performed on spinal cord tissues collected at the lesion epicenter, where myelination is most affected by injury.

APP/PS1 transgenic mice = assay: Cognitive tests in APP/PS1 transgenic mice; type: in vivo, mouse
[8] = GLP toxicity tests in rats
[9] = BDC rats, until 48 hours after oral administration
[10] = up to 168 hours after administration

**Q.** For `CS(=O)(=O)O.C[C@H](NCc1ccc(-c2ccc(C(F)(F)F)cc2)cc1)C(N)=O` [KDS2010, (S)-2-(((4’-Trifluoromethylbiphenyl-4-yl)methyl)amino)propanamide methane-sulfonate], which AUC(0-inf) (in vivo [1]; SD, iv, 1 mg/kg) is on record?
**A.** 164 ± 13.1 ng·h/mL

**Q.** And the Vd/F (in vivo [1]; SD, iv, 1 mg/kg)?
**A.** 18.377 ± 2.743 L/kg

**Q.** And the half-life (in vivo [1]; SD, iv, 1 mg/kg)?
**A.** 2.1 ± 0.3 h

**Q.** And the AUC(0-inf) (in vivo [1]; SD, po, 9 mg/kg)?
**A.** 9120 ± 4130 ng·h/mL

**Q.** What about the Vd/F (in vivo [1]; SD, po, 9 mg/kg) of the same compound?
**A.** 19.7 ± 4.34 L/kg

**Q.** What about the half-life (in vivo [1]; SD, po, 9 mg/kg) of the same compound?
**A.** 14.6 ± 8.7 h

**Q.** What about the AUC(0-t) (in vivo [1]; Sprague-Dawley) of the same compound?
**A.** ~3000 ng·h/mL

**Q.** What about the AUC (in vivo [1]; Sprague-Dawley, po, 9 mg/kg) of the same compound?
**A.** 3000 ng·h/mL

**Q.** What about the CL/F (in vivo [1]; Sprague-Dawley, po, 9 mg/kg) of the same compound?
**A.** 19 mL/min/kg

**Q.** And the Cmax (in vivo [1]; Sprague-Dawley, po, 9 mg/kg)?
**A.** 508 ng/mL

**Q.** And the half-life (in vivo [1]; Sprague-Dawley, po, 9 mg/kg)?
**A.** 10.8 h

**Q.** What about the approximate lethal dose ([2]; iv) of the same compound?
**A.** ≥ 100 mg/kg

**Q.** What about the approximate lethal dose ([2]; po) of the same compound?
**A.** ≥ 1400 mg/kg

**Q.** What about the NOAEL at 4 weeks (in vivo [3]) of the same compound?
**A.** 40 mg/kg

**Q.** What about the chromosomal aberration assay [4] of the same compound?
**A.** negative

**Q.** And the micronucleus assay [4]?
**A.** negative

**Q.** What about the reverse mutation test [4] of the same compound?
**A.** negative

**Q.** And the “administered radioactivity present in the body (carcass)” value ([5]; 14C radiolabeled, oral 10 mg/kg)?
**A.** 44.1%

**Q.** And the excreted in bile ([5]; BDC (bile duct-cannulated) rats, until 48 hours after oral administration)?
**A.** 71.5%

**Q.** And the excreted in feces [5, 9]?
**A.** 6.0%

**Q.** And the excreted in urine [5, 9]?
**A.** 6.8%

**Q.** And the “excretion to air through respiration” value ([5]; until 48 hours after administration)?
**A.** about 0.0%

**Q.** What about the excreted in feces [5, 10] of the same compound?
**A.** 48.5%

**Q.** And the excreted in urine [5, 10]?
**A.** 6.9%

**Q.** What about the “effects on central nervous system, respiratory system, and cardiovascular system” value (Safety pharmacology test) of the same compound?
**A.** no effect

**Q.** And the IC50 (hERG)?
**A.** 7.8 ± 1.7 µM

**Q.** And the approximate lethal dose [6]?
**A.** ≥ 100 mg/kg

**Q.** What about the AUC(0-inf) [7] of the same compound?
**A.** 17900 ± 2460 ng·h/mL

**Q.** And the half-life ([7]; t1/2)?
**A.** 8.65 ± 0.97 h

**Q.** What about the “myelination (TEM)” value (rat SCI model; SCI + KDS 2w at PI 10w) of the same compound?
**A.** fully recovered

**Q.** What about the “number of myelinated axons” value (rat SCI model; SCI + KDS 2w, PI 2-10w) of the same compound?
**A.** gradual increase

**Q.** And the density of cavities (rat SCI model; SCI + KDS 2w, TB staining, PI 2-10w)?
**A.** gradual decrease

**Q.** What about the passive avoidance test (APP/PS1 transgenic mice; 1 mg/kg and 10 mg/kg, repeated administration for 2 weeks, vs APP/PS1 control group) of the same compound?
**A.** statistically significant cognitive function improvement effect

**Q.** And the “Morris water maze test” value (APP/PS1 transgenic mice; 10 mg/kg for 27 to 37 days)?
**A.** statistically significant improvement

**Q.** What about the cognitive function (APP/PS1 transgenic mice; 4-week repeated dosing test) of the same compound?
**A.** statistically significant cognitive function effect

**Q.** And the “human equivalent dose (HED) of MTD” value ([8]; from rat MTD)?
**A.** 6774.2 mg/60kg

**Q.** And the “histopathology (kidneys, bladder, testis, epididymis and lungs)” value ([8]; oral 30, 50, 75 and 100 mg/kg once daily for 4 weeks)?
**A.** histopathological changes

**Q.** And the mortality ([8]; oral 50-200 mg/kg daily for 2 weeks)?
**A.** no deaths
